The text below walks through data of US7112590B2, “Thrombin inhibitors” (LEK Pharmaceuticals d.d., priority 2000, dated 2006).

One may read the melting point as the temperature of the solid-liquid transition.

Bounds are passed on as bounds.

For `CC(C)(C)OC(=O)N[C@H](C(=O)N1CCC[C@H]1C(=O)NC1CCc2nc(N)sc2C1)C(c1ccccc1)c1ccccc1` (stereo partly drawn) [Example 35, tert-Butyl (1S)-2-((2S)-2-{[(2-amino-4,5,6,7-tetrahydro-1,3-benzothiazol-6-yl)amino]carbonyl}pyrrolidinyl)-1-benzhydryl-2-oxoethylcarbamate], the melting point fell in the range of 127 to 130 °C.
As for `Nc1nc2ccc(NC(=O)[C@@H]3CCCN3C(=O)[C@@H](Cc3ccccc3)NS(=O)(=O)Cc3ccccc3)cc2s1` [Example 38, (2S)-N-(2-Amino-1,3-benzothiazol-6-yl)-1-{(2R)-2-[(benzylsulfonyl)amino]-3-phenylpropanoyl}-2-pyrrolidinecarboxamide], the melting point lay in the range of 130 to 133 °C.
Next, `Nc1nc2ccc(NC(=O)CNC(=O)[C@@H](Cc3ccccc3)NS(=O)(=O)Cc3ccccc3)cc2s1` [Example 39, (2R)-N-{2-[(2-Amino-1,3-benzothiazol-6-yl)amino]-2-oxoethyl}-2-[(benzylsulfonyl)amino]-3-phenylpropanamide]: 127 to 130 °C.
Then `Nc1ncnc2ccc(NC(=O)[C@@H]3CCCN3C(=O)CNC(c3ccccc3)(c3ccccc3)c3ccccc3)cc12` [Example 42, (2S)-N-(4-amino-6-quinazolinyl)-1-{2-[(triphenylmethyl)amino]acetyl}-2-pyrrolidinecarboxamide], with above 250 °C; and `CC(C)(C)OC(=O)N[C@@H](C(=O)N1CCC[C@H]1C(=O)NC1CCc2n[nH]cc2C1)C(c1ccccc1)c1ccccc1` (stereo partly drawn) [Example 55, tert-Butyl (1R)-1-benzhydryl-2-oxo-2-{(2S)-2-[(4,5,6,7-tetrahydro-2H-indazol-5-ylamino)carbonyl]pyrrolidinyl}ethylcarbamate], with 119 to 122 °C; and `Nc1ncc2c(n1)CCC(CNC(=O)[C@@H]1CCCN1C(=O)[C@@H](CC1CCCCC1)NS(=O)(=O)Cc1ccccc1)C2` (stereo partly drawn) [Example 57, (2S)-N-[(2-Amino-5,6,7,8-tetrahydro-6-quinazolinyl)methyl]-1-{(2R)-2-[(benzylsulfonyl)amino]-3-cyclohexylpropanoyl}-2-pyrrolidinecarboxamide], with 118 to 121 °C.
Then `O=C(NCC1CCc2n[nH]cc2C1)[C@@H]1CCCN1C(=O)[C@@H](CC1CCCCC1)NS(=O)(=O)Cc1ccccc1` (stereo partly drawn) [Example 58, (2S)-1-{(2R)-2-[(Benzylsulfonyl)amino]-3-cyclohexylpropanoyl}-N-(4,5,6,7-tetrahydro-2H-indazol-5-ylmethyl)-2-pyrrolidinecarboxamide], with 100 to 103 °C.
The compound `CC(C)(C)OC(=O)N[C@H](Cc1ccc(Cl)c(Cl)c1)C(=O)N1CCC[C@H]1C(=O)NCC1CCc2n[nH]cc2C1` (stereo partly drawn) [Example 59, tert-Butyl (1R)-1-(3,4-dichlorobenzyl)-2-oxo-2-((2S)-2-{[(4,5,6,7-tetrahydro-2H-indazol-5-ylmethyl)amino]carbonyl}pyrrolidinyl)ethylcarbamate] displayed a melting point of 100 to 103 °C.
On to `CC(C)(C)OC(=O)N[C@H](Cc1ccc(Cl)c(Cl)c1)C(=O)N1CCC[C@H]1C(=O)NCC1CCc2nc(N)ncc2C1` (stereo partly drawn) [Example 61, tert-Butyl (1R)-2-[(2S)-2-({[(2-amino-5,6,7,8-tetrahydro-6-quinazolinyl)methyl]amino}carbonyl)pyrrolidinyl]1-(3,4dichlorobenzyl)-2-oxoethylcarbamate], for which the melting point was in the range of 110 to 113 °C.
In turn, `O=C(NC1CCc2c[nH]cc2C1)[C@@H]1CCCN1C(=O)[C@@H](CC1CCCCC1)NS(=O)(=O)Cc1ccccc1` (stereo partly drawn) [Example 63, (2S)-1-{(2R)-2-[(Benzylsulfonyl)amino]-3-cyclohexylpropanoyl}-N-(4,5,6,7-tetrahydro-2H-isoindol-5-yl)-2-pyrrolidinecarboxamide] displayed a melting point of 106 to 109 °C.
